Molecules are shown by their SMILES.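 48-hour exposure; five concentrations; linearly interpolated endpoints. At the TGI there is no net growth.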

For nine compounds, TGI results are on record in PubChem BioAssay (NCI).

Among the test systems are HCT-15 colon; UO-31 renal; ACHN renal; NCI-H226 lung; BT-549 breast; K-562 leukemia; OVCAR-5 ovarian; HT29 colon; 786-0 renal; UACC-257 melanoma; SW-620 colon; KM12 colon; A498 renal; NCI-H23 lung; LOX IMVI melanoma; CAKI-1 renal; EKVX NSCLC.
Holding throughout (assay): NCI anticancer screen, dose series, 48 h

On to `CC1CC[C@@]2(OC1)OC1C[C@H]3[C@@H]4C/C(=N\N(C)C)[C@@]5(O)CC(O)CC[C@]5(C)[C@H]4CC[C@]3(C)C1[C@@H]2C` (some centres undefined), for which the TGI in the test on HCT-15 colon, in the test with UO-31 renal, in the test with ACHN renal, in the test with NCI-H226 lung, in the test on BT-549 breast and with K-562 leukemia was over 100 µM in each case. The TGI in the test on OVCAR-5 ovarian was over 100 µM; with HT29 colon, 49.2 µM; in the test with 786-0 renal, over 100 µM; with UACC-257 melanoma, over 100 µM; in the test on SW-620 colon it was over 100 µM; in the test on KM12 colon, over 100 µM. For the same compound, the TGI in the test on A498 renal, in the test with NCI-H23 lung and with LOX IMVI melanoma was over 100 µM in each case.
Regarding `Nc1c(-c2nc3ccccc3s2)c2ccc([N+](=O)[O-])cc2c(=O)n1-c1cccc(C(=O)O)c1`, the TGI in the test with HCT-15 colon was over 100 µM; with UO-31 renal, 71.8 µM; in the test on ACHN renal, over 100 µM; in the test on NCI-H226 lung, 71.5 µM; in the test on BT-549 breast it was 64.3 µM; in the test with HT29 colon it was over 100 µM. The TGI in the test on 786-0 renal is over 100 µM; in the test with UACC-257 melanoma, 61.9 µM; in the test on CAKI-1 renal, 80.3 µM; in the test on SW-620 colon, over 100 µM; in the test on KM12 colon, over 100 µM; in the test on NCI-H23 lung, 92.8 µM. In addition, in the test on LOX IMVI melanoma, the TGI was over 100 µM.
On to `O=C1Nc2cccc(Cl)c2/C1=C\c1c(Cl)nc2sccn12`, for which the TGI in the test on EKVX NSCLC is over 100 µM; in the test with HCT-15 colon it was over 100 µM; with UO-31 renal, over 100 µM; in the test on ACHN renal it was 29.4 µM; with BT-549 breast, 74.9 µM; in the test with K-562 leukemia, over 100 µM. Further, the TGI with OVCAR-5 ovarian was over 100 µM; in the test with HT29 colon it was over 100 µM; in the test with 786-0 renal, 24.6 µM; in the test on UACC-257 melanoma it was over 100 µM; with CAKI-1 renal, over 100 µM; in the test with SW-620 colon, over 100 µM. The TGI in the test on KM12 colon was over 100 µM; with A498 renal, over 100 µM; in the test with NCI-H23 lung, 66.3 µM; in the test on LOX IMVI melanoma, over 100 µM.
Consider `CC1(C2(C)OC(=O)c3ccccc32)OC(=O)c2ccccc21` (centres undefined), for which the TGI in the test on HCT-15 colon, in the test on UO-31 renal, in the test on ACHN renal, in the test with NCI-H226 lung, with BT-549 breast and in the test with HT29 colon was over 100 µM each time. In addition, the TGI with 786-0 renal, in the test on UACC-257 melanoma, in the test with CAKI-1 renal, with SW-620 colon, in the test with KM12 colon and in the test with A498 renal was over 100 µM in each case. Also, the TGI with NCI-H23 lung and in the test on LOX IMVI melanoma was over 100 µM each time.
For the compound `N#CCCN(CCC#N)c1ccc(C(N=Nc2ccccc2)=Nc2ccccc2)cc1`, the TGI in the test with EKVX NSCLC, with HCT-15 colon, in the test on UO-31 renal, in the test on ACHN renal, in the test with NCI-H226 lung and in the test with BT-549 breast was over 100 µM in each case. Also, the TGI in the test with K-562 leukemia, in the test on OVCAR-5 ovarian, in the test with HT29 colon, in the test on 786-0 renal, in the test with UACC-257 melanoma and in the test with CAKI-1 renal was over 100 µM in each case. Also, the TGI with SW-620 colon, in the test with KM12 colon, in the test with A498 renal and in the test on NCI-H23 lung was over 100 µM each time.
Turning to `CC(=O)OCC1OC(n2c3c(c(-c4ccco4)c(C#N)c2=S)CCC3)C(OC(C)=O)C(OC(C)=O)C1OC(C)=O` (centres undefined), the TGI in the test on HCT-15 colon, in the test on UO-31 renal, with ACHN renal, in the test on BT-549 breast, with K-562 leukemia and in the test on OVCAR-5 ovarian was over 100 µM throughout. The TGI in the test with HT29 colon, with 786-0 renal, with UACC-257 melanoma, in the test with CAKI-1 renal, with SW-620 colon and in the test with KM12 colon was over 100 µM each time. In addition, the TGI in the test on NCI-H23 lung and in the test on LOX IMVI melanoma was over 100 µM in each case.
As for `CC1(C)CC(=O)C2=C(C1)c1c(ccc3ccccc13)NC2c1cn(Cc2ccc(Cl)cc2)c2ccccc12` (centres undefined), the TGI in the test with EKVX NSCLC, in the test on HCT-15 colon, in the test with UO-31 renal, in the test with ACHN renal, in the test on BT-549 breast and in the test on K-562 leukemia was over 100 µM each time. The TGI in the test with OVCAR-5 ovarian, in the test on HT29 colon, in the test with 786-0 renal, with UACC-257 melanoma, in the test on CAKI-1 renal and with SW-620 colon was over 100 µM throughout. Moreover, the TGI with KM12 colon, in the test on NCI-H23 lung and in the test on LOX IMVI melanoma was over 100 µM in each case.
With `CC(OC(=O)NCn1cc(-c2ccccc2)nn1)c1ccccc1` (centres undefined), the TGI in the test on EKVX NSCLC is over 100 µM; in the test with HCT-15 colon, over 100 µM; in the test with ACHN renal it was over 100 µM; in the test with NCI-H226 lung it was 56.4 µM; with BT-549 breast, over 100 µM; in the test with K-562 leukemia, 75.5 µM. For the same compound, the TGI in the test on OVCAR-5 ovarian, in the test on HT29 colon, with 786-0 renal, with UACC-257 melanoma, with CAKI-1 renal and in the test on SW-620 colon was over 100 µM throughout. Also, the TGI was over 100 µM in the test with KM12 colon, 76.8 µM with NCI-H23 lung and over 100 µM with LOX IMVI melanoma.
With `CCCc1c(OC)c(=O)c2c(OC)cc(OC)c3c4c(OC)cc(OC)c5c(=O)c(OC)c(CCC)c(c1c23)c54`, the TGI in the test with EKVX NSCLC came out at 28 µM; in the test with HCT-15 colon, 27.9 µM; in the test with UO-31 renal, 28.9 µM; in the test with ACHN renal, 29.3 µM; in the test on NCI-H226 lung, 38.9 µM; in the test on BT-549 breast it was 31.4 µM. The TGI with OVCAR-5 ovarian was 29 µM; in the test with HT29 colon it was 24.1 µM; with 786-0 renal, 26.7 µM; in the test on UACC-257 melanoma, 46.6 µM; in the test with CAKI-1 renal, 27.7 µM; in the test on SW-620 colon, 33.7 µM. Moreover, the TGI stood at 34.1 µM in the test with KM12 colon, 37.1 µM in the test on A498 renal, 29.5 µM with NCI-H23 lung and 23.1 µM with LOX IMVI melanoma.
